Laboratory results published in patent US10450260B2, “NO- and H2S-releasing compounds” (RESEARCH FOUNDATION OF THE CITY UNIVERSITY OF NEW YORK, priority 2011, dated 2019).
“And” between values parts separate entries of the source, which are not always exact repeats. Identical values can stand only once. Values belong to the compound of their own block, whether it stands above or below them.

Legend:
[1] = tested on: SW-480 human colon adenocarcinoma; experiment: MTT cell growth inhibition, SW480; assay type: cell-based; conditions: for IC50: Homo sapiens, SW480; for Ratio NSAID/NOSH-NSAID, SW480: fold-enhancement in potency over the parent compound
Procedure: (§1) All cells lines were grown as monolayers except for the Jurkats which were grown in suspension. […] All media were supplemented with 10% fetal calf serum (Invitrogen, Carlsbad, Calif.) penicillin (50 U/ml), and streptomycin (50 μg/ml) (Invitrogen, Carlsbad, Calif.). Cells were seeded on culture dishes at a density of 25×10^3 cells/cm^2 and incubated at 37° C. in 5% CO2 and 90% relative humidity. Single cell suspensions were obtained by trypsinization (0.05% trypsin/EDTA), and cells were counted using a hemocytometer. Viability was determined by the trypan blue dye exclusion method.
(§2) Cell growth inhibitory effect of NOSH compounds were measured using a colorimetric MTT assay kit (Roche, Indianapolis, Ind.). Cancer cells were plated in 96-well plates at a density of 50,000 cells/well. The cells were incubated for 24 h with different concentrations of NOSH compounds. After the indicated time, 10 μl of MTT dye (3-[4,5-dimethylthiazol-2-yl]-2,5-diphenyl tetrazolium bromide, 5 mg/ml in phosphate buffered saline), was added to each well, and the plates were incubated for 2 hours at 37° C. Then, the media was aspirated, and add 100 μl of the solubilization solution (10% SDS in 0.01 M HCl) was added to each well to solubilize the formant crystals. The absorbance of the plates was measured on an ELISA reader at a wavelength of 570 nm. Each sample was performed in triplicate, and the entire experiment was repeated three times.
(§3) All media were supplemented with 10% fetal calf serum (Invitrogen, Carlsbad, Calif.) penicillin (50 U/ml), and streptomycin (50 μg/ml) (Invitrogen, Carlsbad, Calif.). Cells were seeded on culture dishes at a density of 25×10^3 cells/cm^2 and incubated at 37° C. in 5% CO2 and 90% relative humidity. Single cell suspensions were obtained by trypsinization (0.05% trypsin/EDTA), and cells were counted using a hemacytometer. The final DMSO concentration was adjusted in all media to 1%. Viability was determined by the trypan blue dye exclusion method.
(§4) Cell growth inhibitory effect of all NOSH-NSAIDs was measured using a colorimetric MTT assay kit (Roche, Indianapolis, Ind.). Cancer cells were plated in 96-well plates at a density of 30,000-50,000 cells/well depending on cell type. The cells were incubated for 24 hours with different concentrations of NOSH-NSAIDs. After the indicated time, 10 μL of MTT dye (3-[4,5-dimethylthiazol-2-yl]-2,5-diphenyl tetrazolium bromide, 5 mg/mL in phosphate buffered saline), was added to each well, and the plates were incubated for 2 hours at 37° C. Then, the media was aspirated, and 100 μL of the solubilization solution (10% SDS in 0.01 M HCl) was added to each well to solubilize the formant crystals. The absorbance of the plates was measured on a spectrophotometric plate reader at a wavelength of 570 nm. Each experiment was performed in triplicate, and the entire experiment was repeated three times.

[2] = tested on: HCT-15 human colon adenocarcinoma; experiment: MTT cell growth inhibition, HCT15; assay type: cell-based; conditions: for IC50: Homo sapiens, HCT-15; for Ratio NSAID/NOSH-NSAID, HCT15: fold-enhancement in potency over the parent compound
Procedure: as §1, §2, §3, §4

ovine COX-1 = molecular target: T1, ovine COX-1 (Ovis aries, UniProt P05979); experiment: COX-1 enzyme activity, colorimetric inhibitor screening kit; assay type: biochemical; conditions: for preference between COX-1 and COX-2 enzyme inhibition: ovine COX-1 vs COX-2
T1 construct: purchased Cayman Chemicals (Ann Arbor, Mich.)
T1 sequence (P05979 25-600): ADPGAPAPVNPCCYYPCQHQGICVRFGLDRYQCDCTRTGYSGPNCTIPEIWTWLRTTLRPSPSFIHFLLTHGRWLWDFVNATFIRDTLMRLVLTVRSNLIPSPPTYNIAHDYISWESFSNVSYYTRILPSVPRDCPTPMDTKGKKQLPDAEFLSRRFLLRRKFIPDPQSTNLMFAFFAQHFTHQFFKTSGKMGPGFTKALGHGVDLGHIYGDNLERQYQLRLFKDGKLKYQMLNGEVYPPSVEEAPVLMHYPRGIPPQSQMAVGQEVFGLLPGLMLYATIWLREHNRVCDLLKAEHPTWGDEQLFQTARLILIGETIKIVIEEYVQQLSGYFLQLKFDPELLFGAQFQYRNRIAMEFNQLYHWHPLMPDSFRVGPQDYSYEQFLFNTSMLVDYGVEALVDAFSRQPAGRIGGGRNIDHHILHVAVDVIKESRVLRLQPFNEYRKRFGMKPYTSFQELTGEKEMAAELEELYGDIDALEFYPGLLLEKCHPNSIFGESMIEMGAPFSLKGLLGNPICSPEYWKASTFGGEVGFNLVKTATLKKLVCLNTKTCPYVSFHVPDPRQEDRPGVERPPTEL

IC50 ([1]; 24 hours): 97 ± 7 nM | IC50 ([2]; 24 hours): 90 ± 6 nM
Structure (SMILES): O=C(CCC(=O)Oc1ccccc1C(=O)Oc1ccc(-c2cc(=S)ss2)cc1)OCCCCO[N+](=O)[O-] [NOSH-2, 4-(nitrooxy)butyl (2-((4-(3-thioxo-3H-1,2-dithiol-5-yl)phenoxy)carbonyl)phenyl) succinate]

Structure (SMILES): COc1ccc2cc([C@H](C)C(=O)O)ccc2c1 [naproxen, reference compound]
COX 1-% Inhibition (ovine COX-1; 3 mM (Table 8)): 80.1% | inhibition at 3000 µM (ovine COX-1; read-out: COX 1-% Inhibition, 3 mM (Table 8)): 84.7% | inhibition at 6000 µM (ovine COX-1; read-out: COX 1-% Inhibition, 6 mM (Table 8)): 91.9%

IC50 ([1]; 24 hours): 5300 ± 240 nM | IC50 ([2]; 24 hours): 5900 ± 305 nM
Structure (SMILES): NC(=S)c1ccc(OC(=O)c2ccccc2OC(=O)CCCO[N+](=O)[O-])cc1 [NOSH-3, 4-carbamothioylphenyl 2-((4-(nitrooxy)butanoyl)-oxy)benzoate]

Structure (SMILES): O=C(CCCO[N+](=O)[O-])Oc1ccccc1C(=O)Oc1ccc(-c2cc(=S)ss2)cc1 [NOSH-1, 4-(3-thioxo-3H-1,2-dithiol-5-yl)phenyl 2-((4-(nitrooxy)butanoyl)oxy)benzoate]
IC50 ([1]; 24 hours): 60 ± 4 nM | inhibition at 0.025 µM (ovine COX-1; 25 nM (Table 6)): 8.3 ± 1% | inhibition at 0.05 µM (ovine COX-1; 50 nM (Table 6)): 45.2 ± 2% | inhibition at 0.05 µM (ovine COX-1; 50 nM (Table 8)): 52.6% | COX 1-% Inhibition (ovine COX-1; 50 nM (Table 8), listed as NOSH-ASA, 0.05 µM): 47.6% | inhibition at 0.1 µM (ovine COX-1; 100 nM (Table 6)): 69.4 ± 2.2% | inhibition at 0.1 µM (ovine COX-1; 100 nM (Table 8)): 67.9% | preference between COX-1 and COX-2 enzyme inhibition (ovine COX-1): preferentially inhibits COX-1 | IC50 ([2]; 24 hours): 50 ± 5 nM

Structure (SMILES): CC(=O)Oc1ccccc1C(=O)O [ASA, aspirin, reference compound]
COX-1, % Inhibition (ovine COX-1; 1 mM (Table 6)): 53.2±1.8% | COX 1-% Inhibition (ovine COX-1; 1 mM, 15 min at 4° C. (Table 8)): 84.9% and 85.9% | COX 1-% Inhibition (ovine COX-1; 3 mM (Table 8)): 86.5%

Structure (SMILES): CC(C(=O)Oc1ccc(-c2cc(=S)ss2)cc1)c1ccc2cc(OC(=O)CCCO[N+](=O)[O-])ccc2c1 (centres unmarked) [NOSH-7, 6-(1-oxo-1-(4-(3-thioxo-3H-1,2-dithiol-5-yl)phenoxy)propan-2-yl)naphthalen-2-yl 4-(nitrooxy)butanoate]
IC50 ([1]; 24 hours (Table 7)): 98 nM | Ratio NSAID/NOSH-NSAID, SW480 [1]: 31,734 | inhibition at 0.08 µM (ovine COX-1; 80 nM (Table 8)): 42.5% | COX 1-% Inhibition (ovine COX-1; 80 nM (Table 8), listed as NOSH-NAPROXEN, 0.08 µM): 44.4% | inhibition at 0.16 µM (ovine COX-1; 160 nM (Table 8)): 52.3% | preference between COX-1 and COX-2 enzyme inhibition (ovine COX-1): preferentially inhibited COX-1 | IC50 ([2]; 24 hours (Table 7)): 100 nM | Ratio NSAID/NOSH-NSAID, HCT15 [2]: 28,500

IC50 ([1]; 24 hours): 600 ± 25 nM | IC50 ([2]; 24 hours): 520 ± 21 nM
Structure (SMILES): O=C(CCCC[C@@H]1CCSS1)Oc1ccccc1C(=O)OCCCCO[N+](=O)[O-] [NOSH-4, (R)-4-(nitrooxy)butyl 2-((5-(1,2-dithiolan-3-yl)pentanoyl)oxy)benzoate]

Structure (SMILES): CC1=C(CC(=O)Oc2ccc(OC(=O)CCCO[N+](=O)[O-])c(C(=O)Oc3ccc(-c4cc(=S)ss4)cc3)c2)c2cc(F)ccc2/C1=C/c1ccc([S+](C)[O-])cc1 (centres unmarked) [NOSH-8, (E)-4-(3-thioxo-3H-1,2-dithiol-5-yl)phenyl 5-(2-(5-fluoro-2-methyl-1-(4-(methylsulfinyl)benzylidene)-1H-inden-3-yl)acetoxy)-2-((4-(nitrooxy)butanoyl)oxy)benzoate]
IC50 ([1]; 24 hours (Table 7)): 110 nM | Ratio NSAID/NOSH-NSAID, SW480 [1]: 6,454 | inhibition at 0.089 µM (ovine COX-1; 89 nM (Table 8)): 43.4% | COX 1-% Inhibition (ovine COX-1; 89 nM (Table 8), listed as NOSH-SULINDAC, 0.089 µM): 45.0% | preference between COX-1 and COX-2 enzyme inhibition (ovine COX-1): preferentially inhibited COX-1 | IC50 ([2]; 24 hours (Table 7)): 110 nM | Ratio NSAID/NOSH-NSAID, HCT15 [2]: 7,727

IC50 ([1]; 24 hours (Table 7)): 710000 nM | inhibition at 800 µM (ovine COX-1; 800 μM (Table 8)): 84% | COX 1-% Inhibition (ovine COX-1; 800 μM (Table 8), 800 µM): 81.0% | inhibition at 1600 µM (ovine COX-1; 1600 μM (Table 8)): 89.1% | IC50 ([2]; 24 hours (Table 7)): 850000 nM
Structure (SMILES): CC1=C(CC(=O)O)c2cc(F)ccc2/C1=C\c1ccc([S+](C)[O-])cc1 (centres unmarked) [sulindac, reference compound]
